Test results reported in patent US8716342B2, “Method for preparing molecular complexes between adapalene and cyclodextrins” (Galderma Research & Development, priority 2009, dated 2014).

Assay: Kinetics of dissolution at 3 g/l and at 25° C. in water (adapalene solubilized, HPLC; pH of the solution at the end)
Type: physicochemical
Procedure: b) Kinetics of Dissolution at 3 g/l and at 25° C.
The chromatographic conditions and the concentrations of the control solutions are the same as those of the assay.
• Stirring: 15-position bench • Thermostated bath: 25° C. +/−2° C. verified on Prolabo PR 531 probe • HPLC Waters 2690-Detector 2487/2996 • Weighing out: Sartorius A200 balance • Dilutions: Eppendorf Research 1000, Eppendorf Research 5000, Gilson M1000 micropipette • Ultrapure water station: ELGA Operating conditions:
A test sample equivalent to 150 mg of Adapalene is introduced into a 100 ml Erlenmeyer flask. 50 ml of water are added. The mixture is stirred magnetically at 400 rpm or position 4 in a waterbath at 25° C. +/−2° C. A 2 ml sample is withdrawn at 15, 30, 60, 120 and 1140 minutes, while stirring magnetically. These withdrawn samples are filtered through 0.45 μm Gelman GHP Acrodisc polypropylene filters. The solution must be clear. The withdrawn samples are diluted by a factor “a” in the mobile phase, making it possible to have an Adapalene peak of surface area included between the surface areas of Control 1 and Control 5.
10 μl of each control solution are injected. A linear regression of the surface areas of the Adapalene peaks relative to the concentrations is performed.
10 μl of the solution to be examined are injected.
The area of the Adapalene peak in each solution to be examined is measured.
The concentration X in μg/ml is deduced therefrom according to the regression line of the controls.
The concentration in μg of Adapalene solubilized per ml is calculated with the formula: [Adapalene] in μg/ml=X×a
The variation in the amount dissolved in μg/ml as a function of time is represented on a graph.
At the end of dissolution, the appearance is immediately noted and the pH of the solution immediately measured.

- pH of dissolution, 15 minutes (15 minutes): (5.7)
- pH of dissolution, 7 days (7 days): (5.7)
- Dissolution, 15 minutes (maturation temperature 85° C., 15 minutes): 0 µg/mL
- Dissolution, 7 days (maturation temperature 85° C., 7 days): 0 µg/mL
Structure (SMILES): COc1ccc(-c2ccc3cc(C(=O)O)ccc3c2)cc1C12CC3CC(CC(C3)C1)C2 [Adapalene alone, 6-(3-(1-adamantyl)-4-methoxyphenyl)-2-naphthoic acid]
